Results on 20 molecules are retold here after US8486936B2, “Antagonist of smoothened” (AllaChem, LLC, priority 2009, dated 2013).

Some results are limits rather than exact numbers.

In this assay the test system is Hh-signalling cascade. The assay is described as follows: Inhibition of SHh-stimulated alkaline phosphatase in C3H10T1/2 cells (Hh-signalling cascade IC50). It counts as cell-based. As to conditions: Mus musculus, C3H 10T1/2, 384-well plates, triplicates, SHh protein stimulation, read-out: Activity (IC50, half maximal inhibition of stimulation of cell alkaline phosphatase by SHh). As to the method: Version 1—manual setup, 96-well plates, dose-response, C3H/10T1/2 cells. Aim: to determine activity of Sonic Hedgehog pathway inhibitors.
• C3H/10T1/2 cells, grown in DMEM medium/10% FBS to 60-80% confluent • Assay Plates: 96-well half-area tissue culture plates Corning cat. #3697 • Tested compounds as 10 mM DMSO solutions in 96-tube racks • Recombinant Human Sonic Hedgehog (C2411) protein, RDS product #1845-SH, reconstituted at 200 μg/ml in PBS. • Lysis Buffer: 10 mM Ethanolamine Buffer (pH 8.0), 0.2% Triton-X100, supplemented 1:100 with Protease Inhibitor Cocktail (EMD Bioscience product #539134). • CSPD Alkaline Phosphatase Substrate with Emerald-II (Applied Biosystems product #T2212). • Prepare 1 Assay plate for every 4 compounds (see FIG. 1): • 1. Harvest C3H/10T1/2 cells with TrypLE Express solution according to a regular cell subculture protocol • 2. Count the cells and calculate dilution necessary to obtain cell suspension at 5×10^3 cells per 40 μl ([…]) • 3. Dilute cells with DMEM/10% FBS and distribute at 40 μl/well • 4. Place the plate(s) into the incubator and allow cells to attach for 3-5 hours • Prepare dilution plate: • 1. Designate 1 column for each compound • 2. Add 99 μl of DMEM/10% FBS to the wells in row A and 50 μl to the wells in rows B-H • 3. Add 1 μl of compound DMSO stocks to the wells in row A, mix, change the tip. • 4. Transfer […] of compound solutions in row A to the wells in row B, mix, change the tip • 5. […] Row G is a “no compound” positive control; row H is a “no Hedgehog” negative control • Add 5 μl/well of 10× compound dilutions from dilution plate to the corresponding wells in assay plates (see assay plate layout). Use 125 μl automatic repeating pipettor. • Place plates into incubator for 20-30 min. • Prepare 3 μg/ml 10× solution of Sonic Hedgehog (C24II) protein (Hh) in DMEM/10% FBS: • 1. Calculate total volume needed as 500 μl per full plate or 125 μl per each compound tested • 2. Add 1.5 μl of Hh stock solution (200 μg/ml in PBS) per each 98.5 μl of medium • Add 5 μl/well of 10× Hh solution to the wells in rows A-G, add 5 μl/well of medium to the wells in row H (see assay plate layout). Use 125 μl automatic repeating pipettor. • Place plates into incubator for 3 days. • Wash cells on plate: aspirate medium, add 100 μl/well of PBS or HBSS and aspirate again. • Add 20 μl/well of lysis buffer and incubate for 15 min. at room temperature on a shaker platform. • Transfer 7.5 μl/well of cell lysate into white opaque plates and add 45 μl/well of CSPD Alkaline Phosphatase substrate. • Cover from light and incubate for 45 min. at room temperature on a shaker platform. • Read the plate(s) on Wallac VictorV reader using Luminescence (0.1 s) protocol.
Cells C3H10T1/2 were used for identification of inhibitors of SHh-protein signaling cascade. SHh-protein activates cells C3H10T1/2, that leads to their osteogenic differentiation [1) Kinto N., Iwamoto M., Enomoto-Iwamoto M., Noji S., Ohuchi H., Yoshioka H., Kataoka H., Wada Y., Yuhao G., Takahashi H. E., Yoshiki S., Yamaguchi A. Fibroblasts expressing Sonic hedgehog induce osteoblast differentiation and ectopic bone formation. FEBS Lett. 1997; 404 (2-3): 319-23. 2) Spinella-Jaegle S., Rawadi G., Kawai S., Gallea S., Faucheu C., Mollat P., Courtois B., Bergaud B., Ramez V., Blanchet A. M., Adelmant G., Baron R., Roman-Roman S. Sonic hedgehog increases the commitment of pluripotent mesenchymal cells into the osteoblastic lineage and abolishes adipocytic differentiation. J. Cell Sci. 2001; 114 (Pt 11): 2085-94] and, in particular, to expression enhancement of alkaline phosphatase enzyme.
The cells were cultivated in DMEM medium with 10% embryonal calfish serum in incubator at 37° C., 100% humidity and 5% CO2 content. The cells were placed in 384-well plates and left for a night. […]
In general, IC50 refers to the midpoint of a concentration-inhibition curve. As to `COc1ccc(C(=O)Nc2ccc(-c3cn4cccc(C)c4n3)cc2)c(Br)c1` [Cpd-001], the concentration for half-maximal inhibition (IC50) was < 500 nM. For `Cc1cccn2cc(-c3ccc(NC(=O)c4ccc(S(C)(=O)=O)cc4Cl)cc3)nc12` [Cpd-002], the IC50 was < 500 nM.

With `Cc1cccn2cc(-c3ccc(NC(=O)c4ccc(S(C)(=O)=O)cc4Br)cc3)nc12` [Cpd-003], the IC50 was < 500 nM. Turning to `COc1ccc(C(=O)Nc2ccc(-c3cn4cccc(C)c4n3)cc2)c(Oc2ccncc2)c1` [Cpd-004], the half-inhibitory concentration (IC50) is 500 to 5000 nM.

On to `COc1ccc(C(=O)Nc2ccc(-c3cn4cccc(C)c4n3)cc2)c(Cl)c1` [Cpd-005], for which the IC50 was < 500 nM. The value for `Cc1cccn2cc(-c3ccc(NC(=O)c4ccccc4F)cc3)nc12` [Cpd-006] was 500 to 5000 nM.

With `Cc1cccn2cc(-c3ccc(NC(=O)c4ccc(F)cc4F)cc3)nc12` [Cpd-007], the IC50 fell in the range of 5000 to 50000 nM. The value for `CCc1cccn2cc(-c3ccc(NC(=O)c4ccc(F)cc4F)cc3)nc12` [Cpd-008] was 500 to 5000 nM; that for `Cc1cccn2cc(-c3ccc(NC(=O)c4ccc(Cl)cc4Cl)cc3)nc12` [Cpd-009] was 5000 to 50000 nM; that for `CCOc1ccc(C(=O)Nc2ccc(-c3cn4cccc(C)c4n3)cc2)c(Cl)c1` [Cpd-010] was < 500 nM.

Consider `COc1ccc(C(=O)Nc2ccc(-c3cn4cccc(C)c4n3)cc2)c(F)c1` [Cpd-011], for which the IC50 is < 500 nM. The value for `Cc1cccn2cc(-c3ccc(NC(=O)c4ccc5c(c4)OCO5)cc3)nc12` [Cpd-012] was 500 to 5000 nM; that for `COc1ccc(C(=O)Nc2ccc(-c3cn4cccc(C)c4n3)cc2)cc1OC` [Cpd-013] was < 500 nM. On to `Cc1cccn2cc(-c3ccc(NC(=O)c4ccc(C(C)C)cc4)cc3)nc12` [Cpd-014], for which the half-maximal inhibitory concentration (IC50) lay within 5000 to 50000 nM.

As for `Cc1cccn2cc(-c3ccc(NC(=O)c4ccc(C(C)(C)C)cc4)cc3)nc12` [Cpd-015], the IC50 was in the range of 500 to 5000 nM. As for `Cc1cccn2cc(-c3ccc(NC(=O)c4ccc(C(F)(F)F)cc4)cc3)nc12` [Cpd-016], the half-inhibitory concentration (IC50) was > 50000 nM. Take `Cc1cccn2cc(-c3ccc(NC(=O)c4ccc(-c5ccccc5)cc4)cc3)nc12` [Cpd-017]: the IC50 lay within 5000 to 50000 nM. On to `Cc1cccc(C)c1C(=O)Nc1ccc(-c2cn3cccc(C)c3n2)cc1` [Cpd-018], for which the half-inhibitory concentration (IC50) was < 500 nM. Take `CCOc1ccc(C(=O)Nc2ccc(-c3cn4cccc(C)c4n3)cc2)c(Br)c1` [Cpd-019]: the IC50 is 500 to 5000 nM. Consider `Cc1cc(S(C)(=O)=O)ccc1C(=O)Nc1ccc(-c2cn3cccc(C)c3n2)cc1` [Cpd-020], for which the IC50 was < 500 nM.
